One data set has as its target BRDT BD1 WT (Homo sapiens, UniProt Q58F21). As to the kind of experiment: competitive AlphaLISA. The data set is classed as binding. On the technique in general: Bead proximity is the source of the signal in Alpha formats.
A further data set in a line: Intrinsic Clearance. The note with it: mouse liver microsomes. In general terms: Liver microsomes are a subcellular fraction often used to study metabolism.
The next data set in a line: in vitro. The settings on record: PAMPA, pH 7.4. For orientation: In PAMPA a lipid-coated filter parts donor from acceptor wells.
For the next data set, the target named is BRD3 BD2 WT (Homo sapiens, UniProt Q15059). As to the kind of experiment: competitive AlphaLISA. The class given is binding.
The target of a further data set is BRD2 BD2 WT (Homo sapiens, UniProt P25440). As to the kind of experiment: competitive AlphaLISA. The data set is classed as binding.
For a further data set, the target named is BRD2 BD1 L/V (Homo sapiens, UniProt P25440, L110V). The data set is described as follows: competitive AlphaLISA. The class given is binding.
The target in data set [1] is WT BET bromodomains (BD1 and BD2 of BRD2, BRD3 and BRD4). The data set is described as follows: competitive AlphaLISA (Bio-JQ1 displacement). The class given is binding, human. The settings on record: mean and SD of all somatic bromodomains; active enantiomer concentration.
A further data set addresses BRD3 BD2 L/V (Homo sapiens, UniProt Q15059, L345V). As to the kind of experiment: competitive AlphaLISA. The data set is classed as binding.
A further data set addresses BRD2 BD2 L/V (Homo sapiens, UniProt P25440, L383V). As to the kind of experiment: competitive AlphaLISA. The data set is classed as binding.
The subject of data set [2] is L/V BET bromodomains (BD1 and BD2 of BRD2, BRD3 and BRD4). The data set is described as follows: competitive AlphaLISA (Bio-JQ1 displacement). The data set is classed as binding, human.
The next data set deals with BRD3 BD1 L/V (Homo sapiens, UniProt Q15059, L70V). As to the kind of experiment: competitive AlphaLISA. The data set is classed as binding.
The nature of data set [3]: WT Cell Cytotoxicity (CellTiter-Glo). The settings on record: human, MV4-11 cells (BET-dependent AML cell line).
In the next data set the test system is MV4-11. The data set is described as follows: WT Cell Cytotoxicity (CellTiter-Glo). The note with it: MV4-11 and HL-60.
The next data set has as its target H2 (h) (Homo sapiens, UniProt P25021). As to the kind of experiment: CEREP ExpresSProfile. The settings on record: read-out: Mean % of control specific binding (±SD).
The target in the next data set is Y2 (h) (Homo sapiens, UniProt P49146). The data set is described as follows: CEREP ExpresSProfile. The settings on record: read-out: Mean % of control specific binding (±SD).
Another data set has as its target NOP (ORL1) (h) (Homo sapiens, UniProt P41146). As to the kind of experiment: CEREP ExpresSProfile. The note with it: read-out: Mean % of control specific binding (±SD).
For data set [4], the target named is norepinephrine transporter (h) (Homo sapiens, UniProt P23975). The data set is described as follows: CEREP ExpresSProfile. The settings on record: read-out: Mean % of control specific binding (±SD).
Source text: (§5) Receptor Reference Compound Mean % of control specific
Receptor & Ion-Channel Screening
CEREP ExpresSProfile panel
A further data set has as its target Src (Homo sapiens, UniProt P12931). The data set is described as follows: kinase Express Screen. The class given is biochemical. Here is the method:
(§1) Kinase Remaining activity
(§2) Table S9. 9-ME-1 Kinase Screen
(§3) Activity of panel of human kinases following treatment with 1 µM (2R, 3S)-7. Dundee MRC-PPU Express Screen
(§4) (http://www.kinase-screen.mrc.ac.uk/services/express-screen)

The target of a further data set is SGK1 (Homo sapiens, UniProt O00141). The data set is described as follows: kinase Express Screen. The data set is classed as biochemical. Here is the method: as §1, §2, §3, §4
The next data set addresses PDK1 (Homo sapiens, UniProt O15530). The data set is described as follows: kinase Express Screen. The class given is biochemical. Here is the method:
as §1, §2, §3, §4

Another data set addresses MLK3 (Homo sapiens, UniProt Q16584). As to the kind of experiment: kinase Express Screen. The class given is biochemical. As for the experimental part:
as §1, §2, §3, §4

Another data set concerns the target CK2 (Homo sapiens, UniProt P68400). The data set is described as follows: kinase Express Screen. The class given is biochemical. As for the experimental part: as §1, §2, §3, §4
For a further data set, the target named is SYK (Homo sapiens, UniProt P43405). As to the kind of experiment: kinase Express Screen. The class given is biochemical. As for the experimental part:
as §1, §2, §3, §4

The next data set concerns the target JNK1 (Homo sapiens, UniProt P45983). The data set is described as follows: kinase Express Screen. The data set is classed as biochemical. As for the experimental part: as §1, §2, §3, §4
A further data set concerns the target PIM1 (Homo sapiens, UniProt P11309). The data set is described as follows: kinase Express Screen. The data set is classed as biochemical. As for the experimental part:
as §1, §2, §3, §4

For the next data set, the target named is JAK3 (Homo sapiens, UniProt P52333). As to the kind of experiment: kinase Express Screen. The class given is biochemical. As for the experimental part: as §1, §2, §3, §4
The next data set has as its target CAMK1 (Homo sapiens, UniProt Q14012). As to the kind of experiment: kinase Express Screen. The class given is biochemical. As for the experimental part:
as §1, §2, §3, §4

For the next data set, the target named is RIPK2 (Homo sapiens, UniProt O43353). As to the kind of experiment: kinase Express Screen. The data set is classed as biochemical. Here is the method:
as §1, §2, §3, §4

Another data set concerns the target SmMLCK (Homo sapiens, UniProt Q15746). As to the kind of experiment: kinase Express Screen. The data set is classed as biochemical. Here is the method:
as §1, §2, §3, §4

The next data set deals with PKBa (Homo sapiens, UniProt P31749). The data set is described as follows: kinase Express Screen. The data set is classed as biochemical. Here is the method:
as §1, §2, §3, §4

A further data set addresses beta 2 (h) (Homo sapiens, UniProt P07550). The data set is described as follows: CEREP ExpresSProfile. The settings on record: read-out: Mean % of control specific binding (±SD).
The target of a further data set is VPAC1 (VIP1) (h) (Homo sapiens, UniProt P32241). The data set is described as follows: CEREP ExpresSProfile. The note with it: read-out: Mean % of control specific binding (±SD).
The target of the next data set is beta 1 (h) (Homo sapiens, UniProt P08588). As to the kind of experiment: CEREP ExpresSProfile. The settings on record: read-out: Mean % of control specific binding (±SD).
The target of a further data set is ETA (h) (Homo sapiens, UniProt P25101). The data set is described as follows: CEREP ExpresSProfile. The note with it: read-out: Mean % of control specific binding (±SD).
The target of another data set is 5-HT6 (h) (Homo sapiens, UniProt P50406). The data set is described as follows: CEREP ExpresSProfile. The settings on record: read-out: Mean % of control specific binding (±SD).
In the next data set the target is 5-HT1A (h) (Homo sapiens, UniProt P08908). As to the kind of experiment: CEREP ExpresSProfile. The settings on record: read-out: Mean % of control specific binding (±SD).
Another data set relates to Na+ channel (site 2). The data set is described as follows: CEREP ExpresSProfile. The data set is classed as binding. The settings on record: 1 µM.
In data set [5] the test system is 55 receptors, transporters and ion channels. As to the kind of experiment: receptor, transporter and ion channel screen. The note with it: 1 μM, whole panel with the exception of MT1. The class given is binding.
Another data set has as its target 5-HT7 (h) (Homo sapiens, UniProt P34969). As to the kind of experiment: CEREP ExpresSProfile. The settings on record: read-out: Mean % of control specific binding (±SD).
The target in the next data set is NK2 (h) (Homo sapiens, UniProt P21452). The data set is described as follows: CEREP ExpresSProfile. The settings on record: read-out: Mean % of control specific binding (±SD).
Another data set concerns the target M2 (h) (Homo sapiens, UniProt P08172). As to the kind of experiment: CEREP ExpresSProfile. The note with it: read-out: Mean % of control specific binding (±SD).
Another data set has as its target CB1 (h) (Homo sapiens, UniProt P21554). As to the kind of experiment: CEREP ExpresSProfile. The note with it: read-out: Mean % of control specific binding (±SD).

Sequence of NK2 (h) (P21452 whole entry): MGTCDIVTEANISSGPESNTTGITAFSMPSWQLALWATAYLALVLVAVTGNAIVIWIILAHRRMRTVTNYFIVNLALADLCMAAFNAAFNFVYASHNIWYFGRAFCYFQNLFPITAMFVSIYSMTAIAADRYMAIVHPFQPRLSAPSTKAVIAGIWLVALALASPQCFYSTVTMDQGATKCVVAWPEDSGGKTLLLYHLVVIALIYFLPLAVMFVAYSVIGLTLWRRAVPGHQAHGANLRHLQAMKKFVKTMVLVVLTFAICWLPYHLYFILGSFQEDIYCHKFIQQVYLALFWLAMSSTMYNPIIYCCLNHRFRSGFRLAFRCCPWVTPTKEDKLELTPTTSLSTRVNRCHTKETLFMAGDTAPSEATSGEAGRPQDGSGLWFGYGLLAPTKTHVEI
Sequence of BRD2 BD1 L/V (P25440 71-176 L110V limits assumed): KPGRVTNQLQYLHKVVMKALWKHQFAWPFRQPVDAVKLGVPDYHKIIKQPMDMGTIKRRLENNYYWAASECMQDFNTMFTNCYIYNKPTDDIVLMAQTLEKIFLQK
Sequence of PIM1 (P11309 whole entry): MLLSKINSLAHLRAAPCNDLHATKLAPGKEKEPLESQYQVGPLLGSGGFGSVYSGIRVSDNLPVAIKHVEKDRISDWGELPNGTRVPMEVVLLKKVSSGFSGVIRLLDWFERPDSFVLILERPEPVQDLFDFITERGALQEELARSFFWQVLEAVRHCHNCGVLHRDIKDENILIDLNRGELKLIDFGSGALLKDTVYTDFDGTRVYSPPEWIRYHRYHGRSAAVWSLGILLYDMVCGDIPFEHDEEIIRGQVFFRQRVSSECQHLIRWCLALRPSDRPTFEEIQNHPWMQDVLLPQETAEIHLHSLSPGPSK
Sequence of BRD2 BD2 L/V (P25440 344-455 L383V): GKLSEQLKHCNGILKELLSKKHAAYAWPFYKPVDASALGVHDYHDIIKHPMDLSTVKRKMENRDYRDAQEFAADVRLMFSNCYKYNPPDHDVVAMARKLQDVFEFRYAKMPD
Sequence of VPAC1 (VIP1) (h) (P32241 31-457): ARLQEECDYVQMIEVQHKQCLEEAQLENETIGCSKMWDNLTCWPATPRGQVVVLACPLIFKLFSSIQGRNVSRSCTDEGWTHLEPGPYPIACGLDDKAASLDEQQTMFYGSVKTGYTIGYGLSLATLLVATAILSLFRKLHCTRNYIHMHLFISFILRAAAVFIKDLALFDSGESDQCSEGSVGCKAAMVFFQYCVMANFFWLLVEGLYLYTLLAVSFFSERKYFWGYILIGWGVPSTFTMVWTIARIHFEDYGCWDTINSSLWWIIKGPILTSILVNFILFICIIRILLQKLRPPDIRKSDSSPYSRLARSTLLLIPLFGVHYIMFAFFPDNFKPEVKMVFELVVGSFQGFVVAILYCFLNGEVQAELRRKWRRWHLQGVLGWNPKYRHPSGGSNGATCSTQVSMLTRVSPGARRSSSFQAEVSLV
Sequence of BRD3 BD1 L/V (Q15059 24-144 L70V limits assumed): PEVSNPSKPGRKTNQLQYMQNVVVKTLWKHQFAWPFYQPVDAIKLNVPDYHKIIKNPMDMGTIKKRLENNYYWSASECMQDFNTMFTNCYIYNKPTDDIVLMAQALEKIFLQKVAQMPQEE
Sequence of PDK1 (O15530 whole entry): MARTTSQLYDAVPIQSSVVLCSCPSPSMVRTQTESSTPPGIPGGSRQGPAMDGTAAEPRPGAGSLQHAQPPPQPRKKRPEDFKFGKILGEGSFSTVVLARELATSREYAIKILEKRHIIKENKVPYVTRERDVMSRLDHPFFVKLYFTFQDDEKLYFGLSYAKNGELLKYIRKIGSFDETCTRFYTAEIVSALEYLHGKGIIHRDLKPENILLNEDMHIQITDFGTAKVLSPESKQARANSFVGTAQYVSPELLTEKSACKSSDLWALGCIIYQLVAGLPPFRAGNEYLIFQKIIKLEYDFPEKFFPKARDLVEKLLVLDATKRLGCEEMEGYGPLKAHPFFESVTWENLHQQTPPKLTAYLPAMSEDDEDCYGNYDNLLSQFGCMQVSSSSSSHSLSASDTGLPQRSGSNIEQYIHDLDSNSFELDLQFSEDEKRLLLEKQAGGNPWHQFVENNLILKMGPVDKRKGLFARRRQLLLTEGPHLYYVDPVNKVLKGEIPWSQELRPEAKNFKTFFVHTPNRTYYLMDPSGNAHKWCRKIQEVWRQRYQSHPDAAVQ
Sequence of Src (P12931 whole entry): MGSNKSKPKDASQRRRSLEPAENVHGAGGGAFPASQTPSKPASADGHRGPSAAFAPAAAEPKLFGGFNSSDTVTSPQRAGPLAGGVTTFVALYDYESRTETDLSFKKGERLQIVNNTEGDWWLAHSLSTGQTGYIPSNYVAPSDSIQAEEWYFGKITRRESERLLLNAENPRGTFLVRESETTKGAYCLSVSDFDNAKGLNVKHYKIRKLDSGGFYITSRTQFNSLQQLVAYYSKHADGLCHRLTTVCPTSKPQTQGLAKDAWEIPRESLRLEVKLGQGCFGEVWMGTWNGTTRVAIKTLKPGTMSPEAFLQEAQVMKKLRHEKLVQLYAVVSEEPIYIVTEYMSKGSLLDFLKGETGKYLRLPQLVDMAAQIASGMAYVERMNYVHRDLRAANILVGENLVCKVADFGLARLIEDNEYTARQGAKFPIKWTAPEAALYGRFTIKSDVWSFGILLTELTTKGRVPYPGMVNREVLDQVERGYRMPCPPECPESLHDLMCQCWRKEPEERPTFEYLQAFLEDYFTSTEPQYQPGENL
Sequence of MLK3 (Q16584 whole entry): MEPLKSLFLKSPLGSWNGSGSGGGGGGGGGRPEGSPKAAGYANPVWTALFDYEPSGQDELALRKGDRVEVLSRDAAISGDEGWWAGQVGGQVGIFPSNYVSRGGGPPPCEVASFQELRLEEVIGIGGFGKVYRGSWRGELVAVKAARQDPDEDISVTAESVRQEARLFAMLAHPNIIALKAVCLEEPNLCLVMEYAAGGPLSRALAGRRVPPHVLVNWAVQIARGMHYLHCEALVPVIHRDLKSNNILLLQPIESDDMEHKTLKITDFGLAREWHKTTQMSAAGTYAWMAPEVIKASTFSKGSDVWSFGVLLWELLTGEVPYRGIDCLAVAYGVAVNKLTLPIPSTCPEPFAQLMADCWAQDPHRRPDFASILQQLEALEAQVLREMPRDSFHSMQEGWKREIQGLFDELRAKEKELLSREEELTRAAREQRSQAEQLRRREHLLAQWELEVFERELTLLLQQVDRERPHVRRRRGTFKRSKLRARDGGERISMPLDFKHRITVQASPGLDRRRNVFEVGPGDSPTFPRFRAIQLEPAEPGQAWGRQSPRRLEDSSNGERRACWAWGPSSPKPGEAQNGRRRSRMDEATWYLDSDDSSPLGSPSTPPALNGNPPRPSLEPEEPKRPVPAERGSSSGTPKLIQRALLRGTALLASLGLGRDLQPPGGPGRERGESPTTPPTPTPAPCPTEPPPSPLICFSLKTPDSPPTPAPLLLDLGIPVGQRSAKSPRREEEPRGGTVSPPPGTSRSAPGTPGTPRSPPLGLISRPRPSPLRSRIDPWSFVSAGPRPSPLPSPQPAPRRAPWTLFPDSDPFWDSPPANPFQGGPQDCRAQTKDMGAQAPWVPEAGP
Sequence of JAK3 (P52333 whole entry): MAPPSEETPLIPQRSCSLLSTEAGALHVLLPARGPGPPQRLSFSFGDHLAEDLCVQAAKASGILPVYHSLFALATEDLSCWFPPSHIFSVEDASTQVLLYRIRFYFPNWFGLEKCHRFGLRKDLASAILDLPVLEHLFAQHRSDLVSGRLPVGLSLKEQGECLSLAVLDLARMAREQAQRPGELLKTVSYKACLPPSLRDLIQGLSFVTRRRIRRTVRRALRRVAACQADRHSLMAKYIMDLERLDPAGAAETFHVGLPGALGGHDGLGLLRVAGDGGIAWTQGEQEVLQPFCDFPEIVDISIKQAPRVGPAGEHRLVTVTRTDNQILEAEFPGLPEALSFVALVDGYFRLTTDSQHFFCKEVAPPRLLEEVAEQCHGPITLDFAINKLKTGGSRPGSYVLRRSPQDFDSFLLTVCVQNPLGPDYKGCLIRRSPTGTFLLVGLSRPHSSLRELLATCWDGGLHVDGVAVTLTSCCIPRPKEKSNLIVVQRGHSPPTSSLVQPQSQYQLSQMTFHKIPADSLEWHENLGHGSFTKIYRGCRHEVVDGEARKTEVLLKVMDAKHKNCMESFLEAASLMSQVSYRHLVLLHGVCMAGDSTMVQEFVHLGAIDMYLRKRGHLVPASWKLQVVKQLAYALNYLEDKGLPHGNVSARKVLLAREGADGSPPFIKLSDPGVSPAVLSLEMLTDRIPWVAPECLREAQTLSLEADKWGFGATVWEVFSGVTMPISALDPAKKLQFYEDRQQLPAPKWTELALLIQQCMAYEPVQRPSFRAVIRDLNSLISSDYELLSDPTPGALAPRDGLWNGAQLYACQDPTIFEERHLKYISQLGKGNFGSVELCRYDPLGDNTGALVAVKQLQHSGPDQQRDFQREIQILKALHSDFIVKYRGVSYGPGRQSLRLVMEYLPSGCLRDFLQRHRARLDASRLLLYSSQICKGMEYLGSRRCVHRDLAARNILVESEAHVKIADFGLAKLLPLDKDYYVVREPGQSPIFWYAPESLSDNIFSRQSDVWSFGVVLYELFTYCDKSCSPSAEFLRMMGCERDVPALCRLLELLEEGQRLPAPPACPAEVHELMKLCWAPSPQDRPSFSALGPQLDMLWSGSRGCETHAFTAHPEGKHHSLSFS
Sequence of 5-HT1A (h) (P08908 whole entry): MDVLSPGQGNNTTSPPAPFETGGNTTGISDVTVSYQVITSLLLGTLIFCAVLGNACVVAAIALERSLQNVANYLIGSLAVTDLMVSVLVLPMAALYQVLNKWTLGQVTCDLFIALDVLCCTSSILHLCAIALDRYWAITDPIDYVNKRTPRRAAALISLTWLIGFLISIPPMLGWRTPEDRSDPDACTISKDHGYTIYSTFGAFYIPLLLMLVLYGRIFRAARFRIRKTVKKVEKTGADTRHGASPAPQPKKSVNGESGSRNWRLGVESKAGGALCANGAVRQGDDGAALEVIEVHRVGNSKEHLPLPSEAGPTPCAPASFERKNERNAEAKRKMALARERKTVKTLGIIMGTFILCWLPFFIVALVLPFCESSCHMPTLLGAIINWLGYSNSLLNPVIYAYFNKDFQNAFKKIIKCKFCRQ
Source text for CB1 (h): as §5
Receptor & Ion-Channel Screening
CEREP ExpresSProfile panel
Source text for ETA (h): as §5
Receptor & Ion-Channel Screening
CEREP ExpresSProfile panel
Source text for VPAC1 (VIP1) (h): as §5
Receptor & Ion-Channel Screening
CEREP ExpresSProfile panel

As for `CC[C@@H](C(=O)OC)[C@@H]1N=C(c2ccc(Cl)cc2)c2ccc(OC)cc2-n2c(C)nnc21` (racemic) [Compound 8], the IC50 was 15800 nM on BRDT BD1 WT; 3980 nM at BRD3 BD2 WT; 3980 nM at BRD2 BD2 WT; 316 nM at BRD2 BD1 L/V; 79.4 nM at BRD3 BD2 L/V; 200 nM on BRD2 BD2 L/V. This molecule gave an IC50 on BRD3 BD1 L/V of 126 nM. In the data set “Intrinsic Clearance”, the CL int is reported as 4.1 ml min^–1 g^–1. Also, the Papp in “in vitro” worked out at 15.5 ×10⁻⁶ cm/s. In addition, in data set [1], the “AlphaLISA pIC50 ± SD WT” value turned out to be 5.5 ± 0.2. Further, the “AlphaLISA pIC50 ± SD Δ” value in data set [2] (L/V minus WT) is given as 1.4 ± 0.2. For the same molecule, the “AlphaLISA pIC50 ± SD L/V” value in data set [2] (mean and SD of all somatic bromodomains, active enantiomer concentration) stood at 6.8 ± 0.2.

On to `COC(=O)[C@H](C)[C@@H]1N=C(c2ccc(Cl)cc2)c2ccc(OC)cc2-n2c(C)nnc21` [(2R,3S)-7], for which the midpoint of cytotoxicity in [3], the CC50 at 48 h, lay at 2510 nM. The cytotoxicity result in the data set on MV4-11 is on record as “no cytotoxicity below 1 μM”. In addition, the remaining activity at 1 µM was determined as 117% at H2 (h); 110% at Y2 (h); 94% on NOP (ORL1) (h); 88% in data set [4]; 82% on Src; 103% on SGK1. Besides, the remaining activity at 1 µM at PDK1 amounted to 97%; on MLK3 it was 100%; on CK2 it was 97%; on SYK it was 98%; at JNK1 it was 89%; on PIM1, 106%. Besides, the remaining activity at 1 µM at JAK3 came out at 95%; at CAMK1, 94%; on RIPK2 it was 103%; at SmMLCK it was 112%; at PKBa it was 95%; at beta 2 (h), 105%. For the same molecule, the remaining activity at 1 µM at VPAC1 (VIP1) (h) stood at 98%; at beta 1 (h) it was 95%; on ETA (h), 87%; at 5-HT6 (h), 112%; on 5-HT1A (h), 104%; on 5-HT7 (h), 106%. Further, the results for the remaining activity at 1 µM at NK2 (h), at M2 (h) and at CB1 (h) were 101%, 105% and 90%, respectively. The “Mean % of control specific binding (±SD)” value in the data set with Na+ channel (site 2) is reported as 105 (6) %. In data set [5], the inhibition entry is listed as “no more than 20%”.

One may read the IC50 as the concentration that inhibits the measured activity by half. High values mean a need for much substance, low ones inhibition by little substance. Usually Papp stands for a coefficient for how fast a substance crosses the barrier. Read a low Papp as poor permeation. The term CC50 denotes the concentration giving 50% cytotoxicity. Higher therefore signals better tolerance by the cells.

The record behind these values is article PMC5909127, “Optimization of a “bump-and-hole” approach to allele-selective BET bromodomain inhibition” (Chemical Science, 2018).
